Measured values published in patent publication US11964973B2 (priority 2019, dated 2024).
Like-named read-outs stand apart in the source and are kept apart here. Each block holds one compound with its values, some of them ahead of it.

Experiments:
[1] = tested on: Human venous whole blood (IFN-γ); experiment: Human whole blood IFN-γ assay; type: cell-based
Method: Assay 10: Human Whole Blood IFN-γ Assay
Human venous whole blood (22.5 μL per well), obtained from healthy donors, was pre-treated with compounds for one hour at 37° C. in a humidified 95% air/5% CO2 incubator. The blood was stimulated with 2.5 μL anti-human CD3 and anti-CD28 mAb at a final concentration of 1 μg/mL each for 24 hours at 37° C. IFN-γ in the supernatants was measured using AlphLISA kit (Cat #AL217).

[2] = tested on: human venous whole blood, CD8 positive population (pERK); experiment: DGK human whole blood pERK assay; type: cell-based; conditions: for IC50: human whole blood, CD8 positive population, read-out: DGK HWB pERK IC50
How it was run: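 Read-out is the pERK-positive fraction of CD8+ cells measured by flow cytometry. Donor venous blood (heparin) saw compound for one hour at 37° C before a 15-minute anti-CD3 challenge (1 μg/mL final) with cross-linking anti-mouse IgG.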

[3] = human whole blood IFN-γ, read-out: INFg Whole Blood
[4] = Homo sapiens, CD8 positive, human whole blood pERK, read-out: DGK HWB
[5] = Homo sapiens, 24 h, human whole blood, anti-CD3 plus anti-CD28, 24 hours, read-out: INFg Whole Blood Normalized Agonist EC50
[6] = human whole blood pERK, read-out: DGK HWB
[7] = read-out: DGK HWB, human whole blood pERK
[8] = Homo sapiens, CD8 positive, read-out: DGK HWB, human whole blood pERK

SMILES: CC(C)c1cccc(O[C@H]2CCN(c3cc(=O)n(C)c4ccc(C#N)nc34)C[C@H]2C)n1 (single isomer, unassigned) [Example 216]
- EC50 [1, 3]: 1400 nM
- EC50 [2, 4]: 14000 nM

SMILES: C[C@@H]1CN(c2cc(=O)n(C)c3ccc(C#N)nc23)CC[C@H]1Oc1ccc(C(F)(F)F)cc1 (racemic) [Example 97, 5-methyl-8-((3R,4R)-3-methyl-4-(4-(trifluoromethyl)phenoxy)piperidin-1-yl)-6-oxo-5,6-dihydro-1,5-naphthyridine-2-carbonitrile]
- EC50 [1, 5]: 1900 nM
- IC50 [2]: 3000 nM

SMILES: CC[C@@H]1CN(c2cc(=O)n(C)c3ccc(C#N)nc23)CC[C@H]1Oc1ccc(C(F)(F)F)cc1 (single isomer, unassigned) [Example 147]
- EC50 ([1]; human whole blood, anti-CD3 plus anti-CD28, 24 hours, read-out: INFg Whole Blood Normalized Agonist EC50): 1200 nM
- IC50 [2]: 610 nM

SMILES: CC(C)Oc1ccc(O[C@H]2CCN(c3cc(=O)n(C)c4ccc(C#N)nc34)C[C@H]2C)nc1 (racemic) [Example 228, (+/−) 8-(cis-4-((5-isopropoxypyridin-2-yl)oxy)-3-methylpiperidin-1-yl)-5-methyl-6-oxo-5,6-dihydro-1,5-naphthyridine-2-carbonitrile]
- EC50 ([1]; Homo sapiens, human whole blood IFN-γ, read-out: INFg Whole Blood): 1100 nM
- EC50 [2, 4]: 1500 nM

SMILES: CC(C)Oc1ccc(O[C@@H]2CCN(c3cc(=O)n(C)c4ccc(C#N)nc34)C[C@H]2C)nc1 (single isomer, unassigned) [Example 201]
- EC50 [1, 3]: 920 nM
- EC50 [2, 6]: 3900 nM

SMILES: C[C@@H]1CN(c2cc(=O)n(C)c3ccc(C#N)nc23)CC[C@H]1Oc1ccc(F)c(F)c1 (racemic) [Example 103, 8-((3R,4R)-4-(3,4-difluorophenoxy)-3-methylpiperidin-1-yl)-5-methyl-6-oxo-5,6-dihydro-1,5-naphthyridine-2-carbonitrile]
- EC50 [1, 5]: 1500 nM
- IC50 [2]: 5500 nM

SMILES: C[C@@H]1CN(c2cc(=O)n(C)c3ccc(C#N)nc23)CC[C@@H]1Oc1ccc(C(F)(F)F)cc1 (single isomer, unassigned) [Example 187, 5-methyl-8-(cis-3-methyl-4-(4-(trifluoromethyl)phenoxy)piperidin-1-yl)-6-oxo-5,6-dihydro-1,5-naphthyridine-2-carbonitrile (rel)]
- EC50 [1, 3]: 1700 nM
- EC50 [2, 4]: 1800 nM

SMILES: CC(C)c1ccc(O[C@H]2CCN(c3cc(=O)n(C)c4ccc(C#N)nc34)C[C@H]2C)nc1 (single isomer, unassigned) [Example 206]
- EC50 [1, 3]: 410 nM
- EC50 [2, 6]: 3600 nM

SMILES: Cn1c(=O)cc(N2CCC(Oc3ccc(C(C)(C)C)cc3)CC2)c2cc(C#N)ccc21 [Example 53, 4-(4-(4-(tert-butyl)phenoxy)piperidin-1-yl)-1-methyl-2-oxo-1,2-dihydroquinoline-6-carbonitrile]
- EC50 [1, 5]: 1800 nM
- IC50 [2]: 2800 nM

- EC50 [2, 7]: 490 nM
SMILES: CC(C)Oc1ccc(OC2C[C@@H](C)N(c3nc(=O)n(C)c4ccc(C#N)nc34)C[C@@H]2C)nc1 (stereo partly drawn) [Example 249, 4-((2R,5S)-4-((5-isopropoxypyridin-2-yl)oxy)-2,5-dimethylpiperidin-1-yl)-1-methyl-2-oxo-1,2-dihydropyrido[3,2-d]pyrimidine-6-carbonitrile]

- EC50 [2, 7]: 5500 nM
SMILES: C[C@H]1CN(c2cc(=O)n(C)c3ccc(C#N)nc23)[C@@H](C)CC1N(C)Cc1ccc(F)cc1 (single isomer, unassigned) [Example 333]

- EC50 [2, 8]: 170 nM
SMILES: CC[C@@H]1CN(c2nc(=O)n(C)c3ccc(C#N)nc23)[C@@H](C)C[C@@H]1Oc1ccc(OC(C)C)cn1 [Example 307, 4-((2S,4S,5R)-5-ethyl-4-((5-isopropoxypyridin-2-yl)oxy)-2-methylpiperidin-1-yl)-1-methyl-2-oxo-1,2-dihydropyrido[3,2-d]pyrimidine-6-carbonitrile]

SMILES: CCO[C@H]1CN(c2cc(=O)n(C)c3ccc(C#N)nc23)CC[C@@H]1Oc1cc(C(F)(F)F)ccn1 [Example 366, 8-((3S,4S)-3-ethoxy-4-((4-(trifluoromethyl)pyridin-2-yl)oxy)piperidin-1-yl)-5-methyl-6-oxo-5,6-dihydro-1,5-naphthyridine-2-carbonitrile]
- EC50 [2, 6]: 20000 nM

- EC50 [2, 8]: 740 nM
SMILES: CC(C)Oc1ccc(OC2C[C@@H](C)N(c3nc(=O)n(C)c4ccc(C#N)nc34)C[C@@H]2C)nc1 (stereo partly drawn) [Example 248, 4-((2R,5S)-4-((5-isopropoxypyridin-2-yl)oxy)-2,5-dimethylpiperidin-1-yl)-1-methyl-2-oxo-1,2-dihydropyrido[3,2-d]pyrimidine-6-carbonitrile]

- EC50 [2, 8]: 1800 nM
SMILES: C[C@@H]1CC(Oc2cccc(C(F)(F)F)c2)[C@@H](C)CN1c1nc(=O)n(C)c2ccc(C#N)nc12 (stereo in doubt) [Example 251, 4-((2R,5S)-2,5-dimethyl-4-(3-(trifluoromethyl)phenoxy)piperidin-1-yl)-1-methyl-2-oxo-1,2-dihydropyrido[3,2-d]pyrimidine-6-carbonitrile]

- EC50 [2, 7]: 20000 nM
SMILES: CCO[C@H]1CN(c2cc(=O)n(C)c3ccc(C#N)nc23)CC[C@@H]1Oc1ccc(Cl)c(F)c1 [Example 357, 8-((3S,4S)-4-(4-chloro-3-fluorophenoxy)-3-ethoxypiperidin-1-yl)-5-methyl-6-oxo-5,6-dihydro-1,5-naphthyridine-2-carbonitrile]

- EC50 [2, 7]: 740 nM
SMILES: CC(C)Oc1ccc(OC2C[C@H](C)N(c3nc(=O)n(C)c4ccc(C#N)nc34)C[C@H]2C)nc1 (stereo partly drawn) [Example 247, 4-((2S,5R)-4-((5-isopropoxypyridin-2-yl)oxy)-2,5-dimethylpiperidin-1-yl)-1-methyl-2-oxo-1,2-dihydropyrido[3,2-d]pyrimidine-6-carbonitrile]

- EC50 [2, 8]: 11000 nM
SMILES: C[C@@H]1CN(c2cc(=O)n(C)c3ccc(C#N)nc23)[C@@H](C)CC1N(C)Cc1ccc(F)cc1 (single isomer, unassigned) [Example 331]

- EC50 [2, 8]: 640 nM
SMILES: CCO[C@H]1CN(c2cc(=O)n(C)c3ccc(C#N)nc23)CC[C@@H]1Oc1ccc(C(F)(F)F)cn1 (relative stereo) [Example 367, trans-8-(3-Ethoxy-4-((5-(trifluoromethyl)pyridin-2-yl)oxy)piperidin-1-yl)-5-methyl-6-oxo-5,6-dihydro-1,5-naphthyridine-2-carbonitrile]

- EC50 [2, 7]: 20000 nM
SMILES: C[C@H]1CN(c2cc(=O)n(C)c3ccc(C#N)nc23)[C@@H](C)CC1N(C)Cc1ccc(F)cc1 (single isomer, unassigned) [Example 334]

- EC50 [2, 8]: 13000 nM
SMILES: CC[C@@H]1CN(c2cc(=O)n(C)c3ccc(C#N)nc23)[C@@H](C)C[C@H]1Oc1ccc(OC(C)C)cn1 [Example 296, 8-((2S,4R,5R)-5-ethyl-4-((5-isopropoxypyridin-2-yl)oxy)-2-methylpiperidin-1-yl)-5-methyl-6-oxo-5,6-dihydro-1,5-naphthyridine-2-carbonitrile]

- EC50 [2, 8]: 3500 nM
SMILES: C[C@@H]1CN(c2nc(=O)n(C)c3ccc(C#N)nc23)[C@@H](C)CC1Oc1cccc(C(F)(F)F)c1 (stereo in doubt) [Example 252, 4-((2S,5R)-2,5-dimethyl-4-(3-(trifluoromethyl)phenoxy)piperidin-1-yl)-1-methyl-2-oxo-1,2-dihydropyrido[3,2-d]pyrimidine-6-carbonitrile]

SMILES: CCO[C@H]1CN(c2cc(=O)n(C)c3ccc(C#N)nc23)CC[C@@H]1Oc1cc(C(F)(F)F)ccn1 [Example 365, 8-((3S,4S)-3-ethoxy-4-((4-(trifluoromethyl)pyridin-2-yl)oxy)piperidin-1-yl)-5-methyl-6-oxo-5,6-dihydro-1,5-naphthyridine-2-carbonitrile]
- EC50 [2, 6]: 600 nM
